The target in the experiment is T1, human Nav1.7 (hNav1.7) (Homo sapiens, UniProt Q15858).
T1 construct: expressed in transfected cells; host or cells: HEK293T
Put plainly: Whole-cell patch-clamp inhibition of Nav1.7 currents in transfected HEK293T cells. To be noted: HEK-293T; 10 μM compound; inhibition rate of Nav1.7; read-out: Inhibitory activity (10 μM). It counts as cell-based. The procedure: Human embryonic kidney (HEK) 293T (ATCC CRL-3216) and ND7/23 cells (National Collection of Authenticated Cell Cultures SCSP-5026) were cultured under standard conditions (5% CO2, 37 °C) in Dulbecco’s modified Eagle’s medium (DMEM) containing 10% fetal bovine serum and 1% penicillin-streptomycin solution(all from Gibco, Thermo Fisher Scientific, Waltham, MA, USA). When the cells reached 70% to 90% confluence, human Nav1.2 (hNav1.2), human Nav1.3 (hNav1.3), human Nav1.4 (hNav1.4), human Nav1.5 (hNav1.5), and mouse Nav1.6 (mNav1.6) channel plasmids were cotransfected with enhanced green fluorescent protein (eGFP) into HEK293T cells. Additionally, plasmids expressing β1 and β2 subunits tagged with eGFP were cotransfected with the human Nav1.7 (hNav1.7) channel into HEK293T cells. Human Nav1.8 (hNav1.8) was transiently transfected into ND7/23 cells, along with eGFP, using Lipofectamine 2000 (Invitrogen), adhering strictly to the manufacturer’s protocol. For manual patch-clamp experiments, the cells were plated onto glass coverslips and used within 20 to 48 h of transfection.
Whole-cell patch-clamp recordings were conducted at 25 ± 2 °C, utilizing an EPC 10USB patch-clamp amplifier (HEKA Elektronik, Lambrecht, Germany). Pipettes, with access resistance between 2.0 and 3.0 MΩ, were pulled from borosilicate glass capillary tubes using a 2-step vertical microelectrode puller (PC-10, Narishige Group, Tokyo, Japan). Voltage-clamp recordings were obtained with PatchMaster software v2 × 73 (HEKA Elektronik) 5 min after establishing whole-cell configuration, sampled at 20 kHz, and filtered at 5 kHz. To minimize voltage errors, 80% series resistance compensation was applied. Pipettes were filled with 140 mM CsF, 10 mM NaCl, 1 mM EGTA, and 10 mM HEPES (pH=7.4, adjusted with CsOH). The external solution contained 140 mM NaCl, 2 mM CaCl2, 1 mM MgCl2, 5 mM KCl, 10 mM HEPES, and 10 mM glucose (pH=7.4, adjusted with NaOH). IC50 values were determined in HEK293T or ND7/23 cell lines by voltage clamping at −80 mV, followed by stepping to the V1/2 of inactivation for 8 s to facilitate compound binding.
Background: In patch-clamp work, channel activity is measured electrically.

T1 sequence (Q15858 whole entry): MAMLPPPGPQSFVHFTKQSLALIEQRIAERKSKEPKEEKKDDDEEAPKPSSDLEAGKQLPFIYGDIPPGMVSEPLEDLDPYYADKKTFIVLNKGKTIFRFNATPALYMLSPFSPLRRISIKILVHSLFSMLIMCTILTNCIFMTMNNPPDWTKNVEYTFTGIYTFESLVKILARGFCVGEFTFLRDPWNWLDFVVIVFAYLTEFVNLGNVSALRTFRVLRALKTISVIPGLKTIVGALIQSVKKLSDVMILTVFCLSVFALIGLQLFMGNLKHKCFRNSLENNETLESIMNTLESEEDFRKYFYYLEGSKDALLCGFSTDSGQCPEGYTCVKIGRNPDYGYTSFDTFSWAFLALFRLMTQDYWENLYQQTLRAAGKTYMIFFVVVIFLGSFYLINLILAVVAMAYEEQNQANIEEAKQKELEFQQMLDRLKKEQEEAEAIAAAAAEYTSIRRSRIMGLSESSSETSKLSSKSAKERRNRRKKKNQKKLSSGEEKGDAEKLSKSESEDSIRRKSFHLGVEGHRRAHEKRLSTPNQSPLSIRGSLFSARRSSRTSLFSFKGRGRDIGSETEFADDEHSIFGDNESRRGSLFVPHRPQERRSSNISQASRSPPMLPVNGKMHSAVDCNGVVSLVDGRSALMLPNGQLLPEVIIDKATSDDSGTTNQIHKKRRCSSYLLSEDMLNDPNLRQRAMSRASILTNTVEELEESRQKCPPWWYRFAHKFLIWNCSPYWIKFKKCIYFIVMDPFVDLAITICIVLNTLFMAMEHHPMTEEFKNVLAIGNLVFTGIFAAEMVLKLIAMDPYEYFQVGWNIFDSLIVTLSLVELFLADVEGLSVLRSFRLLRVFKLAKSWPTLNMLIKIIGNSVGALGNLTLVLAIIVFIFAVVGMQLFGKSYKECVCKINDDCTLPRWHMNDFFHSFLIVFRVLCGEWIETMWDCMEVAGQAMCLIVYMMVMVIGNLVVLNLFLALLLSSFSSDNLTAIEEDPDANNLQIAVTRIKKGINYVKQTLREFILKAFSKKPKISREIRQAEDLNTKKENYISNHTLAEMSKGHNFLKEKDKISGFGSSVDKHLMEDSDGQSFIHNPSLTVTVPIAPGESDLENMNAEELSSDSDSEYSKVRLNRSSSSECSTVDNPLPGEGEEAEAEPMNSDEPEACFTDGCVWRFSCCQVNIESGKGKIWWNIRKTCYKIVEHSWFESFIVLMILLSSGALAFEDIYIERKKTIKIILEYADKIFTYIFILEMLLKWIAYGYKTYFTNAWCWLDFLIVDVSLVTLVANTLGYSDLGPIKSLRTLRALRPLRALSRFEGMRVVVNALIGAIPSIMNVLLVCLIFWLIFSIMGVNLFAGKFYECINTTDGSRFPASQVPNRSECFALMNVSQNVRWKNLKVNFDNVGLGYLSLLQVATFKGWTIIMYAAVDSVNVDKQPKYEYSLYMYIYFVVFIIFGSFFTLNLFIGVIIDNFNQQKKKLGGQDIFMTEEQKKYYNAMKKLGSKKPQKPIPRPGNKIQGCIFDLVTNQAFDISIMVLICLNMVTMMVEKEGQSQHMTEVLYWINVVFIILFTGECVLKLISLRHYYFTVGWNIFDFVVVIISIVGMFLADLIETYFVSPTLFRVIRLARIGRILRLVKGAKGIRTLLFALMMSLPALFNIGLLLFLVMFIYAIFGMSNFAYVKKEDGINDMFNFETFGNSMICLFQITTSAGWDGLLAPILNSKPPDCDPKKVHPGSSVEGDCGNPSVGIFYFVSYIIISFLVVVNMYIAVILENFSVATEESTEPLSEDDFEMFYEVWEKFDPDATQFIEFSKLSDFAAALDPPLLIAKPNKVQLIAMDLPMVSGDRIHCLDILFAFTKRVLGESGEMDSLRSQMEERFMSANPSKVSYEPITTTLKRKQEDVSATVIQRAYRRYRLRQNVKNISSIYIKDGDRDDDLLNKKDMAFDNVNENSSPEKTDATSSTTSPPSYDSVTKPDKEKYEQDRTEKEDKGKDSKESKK
T1 sequence (Q07699 19-218 partner): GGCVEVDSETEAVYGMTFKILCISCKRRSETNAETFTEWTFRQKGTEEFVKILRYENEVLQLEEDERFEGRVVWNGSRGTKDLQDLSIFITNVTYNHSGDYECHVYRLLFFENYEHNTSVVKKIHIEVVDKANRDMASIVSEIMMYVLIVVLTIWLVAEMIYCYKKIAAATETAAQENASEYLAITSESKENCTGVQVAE
T1 sequence (O60939 30-215 partner): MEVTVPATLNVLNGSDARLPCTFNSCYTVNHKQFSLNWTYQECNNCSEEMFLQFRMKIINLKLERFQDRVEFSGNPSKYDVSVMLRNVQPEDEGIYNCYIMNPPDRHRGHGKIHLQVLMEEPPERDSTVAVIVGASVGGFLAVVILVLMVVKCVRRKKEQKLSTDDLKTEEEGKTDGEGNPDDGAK

For the compound `O=C(CSc1nc(=O)n(Cc2cccnc2)c2c1CCC2)NCc1ccc(F)cc1` [A1, C1CC2=C(C1)N(C(=O)N=C2SCC(=O)NCC3=CC=C(C=C3)F)CC4=CN=CC=C4], the inhibition at 10 µM was -0.67%.

With `COc1ccc(S(=O)(=O)Nc2ccc3c(c2)CCCN3C(=O)c2ccccc2)cc1OC` [A2, COC1=C(C=C(C=C1)S(=O)(=O)NC2=CC3=C(C=C2)N(CCC3)C(=O)C4=CC=CC=C4)OC], the inhibition at 10 µM stood at 36.6%.

Turning to `O=C(CC(c1cccc(OCc2ccccc2)c1)c1cn(Cc2ccc(F)cc2)c2ccccc12)NCCc1ccccc1` (stereo not shown) [A3, C1=CC=C(C=C1)CCNC(=O)CC(C2=CC(=CC=C2)OCC3=CC=CC=C3)C4=CN(C5=CC=CC=C54)CC6=CC=C(C=C6)F], the inhibition at 10 µM was 9.09%.

For the compound `O=C(CN(C(=O)c1ccc(Cl)cc1)C1CC1)Nc1nc(-c2ccccc2)cn1-c1ccccc1` [A4, C1CC1N(CC(=O)NC2=NC(=CN2C3=CC=CC=C3)C4=CC=CC=C4)C(=O)C5=CC=C(C=C5)Cl], the inhibition at 10 µM was determined as 76.4%.

For `COCCNC(=O)CC(c1ccc(OCc2ccccc2)c(OC)c1)c1cn(Cc2ccc(F)cc2)c2ccccc12` (stereo not shown) [A5, COCCNC(=O)CC(C1=CC(=C(C=C1)OCC2=CC=CC=C2)OC)C3=CN(C4=CC=CC=C43)CC5=CC=C(C=C5)F], the inhibition at 10 µM worked out at 3.57%.

For the compound `O=C(CC(c1cccc(Cl)c1)c1cn(Cc2ccc(F)cc2)c2ccccc12)NCC1COc2ccccc2O1` (stereo not shown) [A7, FC(C=C1)=CC=C1CN2C=C(C(CC(NCC3COC(C=CC=C4)=C4O3)=O)C5=CC(Cl)=CC=C5)C6=CC=CC=C62], the inhibition at 10 µM came out at 58%.

For the compound `COc1ccc(N2CC(C(=O)NC3CCCc4c3[nH]c3ccccc43)CC2=O)c(OC)c1` (stereo not shown) [A8, COC1=CC(=C(C=C1)N2CC(CC2=O)C(=O)NC3CCCC4=C3NC5=CC=CC=C45)OC], the inhibition at 10 µM came out at 12.1%.

Regarding `Brc1ccc(-c2nc(-c3ccc(Oc4ccccc4)cc3)c(-c3ccc(Oc4ccccc4)cc3)[nH]2)cc1` [A9, C1=CC=C(C=C1)OC2=CC=C(C=C2)C3=C(N=C(N3)C4=CC=C(C=C4)Br)C5=CC=C(C=C5)OC6=CC=CC=C6], the inhibition at 10 µM was found to be 4.44%.

Regarding `O=C1OC(Nc2ccc(S(=O)(=O)Nc3ccccn3)cc2)c2ccccc21` (stereo not shown) [A10, C1=CC=C2C(=C1)C(OC2=O)NC3=CC=C(C=C3)S(=O)(=O)NC4=CC=CC=N4], the inhibition at 10 µM is 2.74%.

Take `CS(=O)(=O)c1ccc2nc(NC(=O)Nc3ccc(Cl)c(Cl)c3)sc2c1` [A11, CS(=O)(=O)C1=CC2=C(C=C1)N=C(S2)NC(=O)NC3=CC(=C(C=C3)Cl)Cl]: the inhibition at 10 µM was 4.91%.

As for `CC(=O)N1CCc2nc3sc(C(=O)Nc4cccc(C#N)c4)c(N)c3c(C(F)(F)F)c2C1` [A12, CC(=O)N1CCC2=C(C1)C(=C3C(=C(SC3=N2)C(=O)NC4=CC=CC(=C4)C#N)N)C(F)(F)F], the inhibition at 10 µM is 9.32%.

Take `CCOc1ccc(C2N(c3ccc(Cl)c(Cl)c3)N=C(C(C)=O)N2c2ccc(N3CCN(C(C)=O)CC3)cc2)cc1` (stereo not shown) [A13, CCOC1=CC=C(C=C1)C2N(C(=NN2C3=CC(=C(C=C3)Cl)Cl)C(=O)C)C4=CC=C(C=C4)N5CCN(CC5)C(=O)C]: the inhibition at 10 µM came to 15.8%.

For the compound `O=C(Nc1ccccc1C(F)(F)F)c1ccc2c(c1)C(=O)N(Cc1cccnc1)C2=O` [A14, C1=CC=C(C(=C1)C(F)(F)F)NC(=O)C2=CC3=C(C=C2)C(=O)N(C3=O)CC4=CN=CC=C4], the inhibition at 10 µM was 2.68%.

For `O=C(CC(c1ccc(F)cc1)c1cn(Cc2ccccc2)c2ccccc12)NCCc1ccc(Cl)cc1Cl` (stereo not shown) [B1, C1=CC=C(C=C1)CN2C=C(C3=CC=CC=C32)C(CC(=O)NCCC4=C(C=C(C=C4)Cl)Cl)C5=CC=C(C=C5)F], the inhibition at 10 µM was 6.13%.

On to `O=C(CC(c1ccc(F)cc1)c1cn(Cc2ccccc2)c2ccccc12)NCc1ccccn1` (stereo not shown) [B2, C1=CC=C(C=C1)CN2C=C(C3=CC=CC=C32)C(CC(=O)NCC4=CC=CC=N4)C5=CC=C(C=C5)F], for which the inhibition at 10 µM was 11.5%.

Turning to `COc1ccc(Cn2cc(C(CC(=O)NCCc3ccccn3)c3ccc(C)cc3)c3ccccc32)cc1` (stereo not shown) [B3, CC1=CC=C(C=C1)C(CC(=O)NCCC2=CC=CC=N2)C3=CN(C4=CC=CC=C43)CC5=CC=C(C=C5)OC], the inhibition at 10 µM turned out to be 14.2%.

For the compound `NC(=O)CC(c1ccc(C(F)(F)F)cc1)c1cn(Cc2ccc(F)cc2)c2ccccc12` (stereo not shown) [B4, C1=CC=C2C(=C1)C(=CN2CC3=CC=C(C=C3)F)C(CC(=O)N)C4=CC=C(C=C4)C(F)(F)F], the inhibition at 10 µM was found to be 13.4%.

Consider `Cc1cccc(C(CC(=O)NCCc2ccccc2)c2cn(Cc3ccc(F)cc3)c3ccccc23)c1` (stereo not shown) [B5, CC1=CC(=CC=C1)C(CC(=O)NCCC2=CC=CC=C2)C3=CN(C4=CC=CC=C43)CC5=CC=C(C=C5)F], for which the inhibition at 10 µM amounted to 2.93%.

Take `Cc1cccc(C(CC(=O)NCCC(C)C)c2cn(Cc3ccc(F)cc3)c3ccccc23)c1` (stereo not shown) [B6, CC1=CC(=CC=C1)C(CC(=O)NCCC(C)C)C2=CN(C3=CC=CC=C32)CC4=CC=C(C=C4)F]: the inhibition at 10 µM came to 7.88%.

Take `CCCCNC(=O)CC(c1cccc(C)c1)c1cn(Cc2ccc(F)cc2)c2ccccc12` (stereo not shown) [B7, CCCCNC(=O)CC(C1=CC=CC(=C1)C)C2=CN(C3=CC=CC=C32)CC4=CC=C(C=C4)F]: the inhibition at 10 µM is 1.84%.

For the compound `O=C(CC(c1ccc(F)cc1)c1cn(Cc2ccccc2)c2ccccc12)NC1CC1` (stereo not shown) [B8, C1CC1NC(=O)CC(C2=CC=C(C=C2)F)C3=CN(C4=CC=CC=C43)CC5=CC=CC=C5], the inhibition at 10 µM stood at 13.6%.

For the compound `Cc1ccc(Cn2cc(C(CC(=O)NC3CCCCC3)c3ccc(F)cc3)c3ccccc32)cc1` (stereo not shown) [B9, CC1=CC=C(C=C1)CN2C=C(C3=CC=CC=C32)C(CC(=O)NC4CCCCC4)C5=CC=C(C=C5)F], the inhibition at 10 µM was determined as 6.85%.

For `O=C(CC(c1ccc(C(F)(F)F)cc1)c1cn(Cc2ccccc2)c2ccccc12)NCCN1CCCC1` (stereo not shown) [B11, C1CCN(C1)CCNC(=O)CC(C2=CC=C(C=C2)C(F)(F)F)C3=CN(C4=CC=CC=C43)CC5=CC=CC=C5], the inhibition at 10 µM was determined as 7.97%.

On to `COc1ccc(Cn2cc(C(CC(=O)NCCc3ccccn3)c3cc(C)ccc3F)c3ccccc32)cc1` (stereo not shown) [B12, CC1=CC(=C(C=C1)F)C(CC(=O)NCCC2=CC=CC=N2)C3=CN(C4=CC=CC=C43)CC5=CC=C(C=C5)OC], for which the inhibition at 10 µM turned out to be 4.98%.

Regarding `O=C(CC(c1cccc(Oc2ccc(Cl)cc2)c1)c1cn(Cc2ccc(F)cc2)c2ccccc12)NCCc1ccccn1` (stereo not shown) [B13, C1=CC=C2C(=C1)C(=CN2CC3=CC=C(C=C3)F)C(CC(=O)NCCC4=CC=CC=N4)C5=CC(=CC=C5)OC6=CC=C(C=C6)Cl], the inhibition at 10 µM is 6.28%.

Take `Cn1cc(C(CC(=O)NCCc2ccccn2)c2cccc(C(F)(F)F)c2)c2ccccc21` (stereo not shown) [B14, CN1C=C(C2=CC=CC=C21)C(CC(=O)NCCC3=CC=CC=N3)C4=CC(=CC=C4)C(F)(F)F]: the inhibition at 10 µM was found to be 24.8%.

Consider `CCOc1ccc(C(CC(=O)NCCc2ccccn2)c2cn(Cc3ccc(OC)cc3)c3ccccc23)cc1` (stereo not shown) [B15, CCOC1=CC=C(C=C1)C(CC(=O)NCCC2=CC=CC=N2)C3=CN(C4=CC=CC=C43)CC5=CC=C(C=C5)OC], for which the inhibition at 10 µM was determined as 20.5%.

`O=C(CC(c1ccc(OCc2ccccc2)cc1)c1cn(Cc2ccc(F)cc2)c2ccccc12)NCCc1ccccn1` (stereo not shown) [B16, C1=CC=C(C=C1)COC2=CC=C(C=C2)C(CC(=O)NCCC3=CC=CC=N3)C4=CN(C5=CC=CC=C54)CC6=CC=C(C=C6)F]: the inhibition at 10 µM was 4.16%.

In the case of `COc1ccc(C(CC(=O)NCCc2ccccn2)c2cn(Cc3ccc(F)cc3)c3ccccc23)cc1OC` (stereo not shown) [B17, COC1=C(C=C(C=C1)C(CC(=O)NCCC2=CC=CC=N2)C3=CN(C4=CC=CC=C43)CC5=CC=C(C=C5)F)OC], the inhibition at 10 µM came out at 34.9%.

In the case of `Cc1ccc(Cn2cc(C(CC(=O)NCCc3ccccn3)c3ccc(F)cc3)c3ccccc32)cc1` (stereo not shown) [B18, CC1=CC=C(C=C1)CN2C=C(C3=CC=CC=C32)C(CC(=O)NCCC4=CC=CC=N4)C5=CC=C(C=C5)F], the inhibition at 10 µM was found to be 13.7%.

Take `O=C(CC(c1ccc(F)cc1)c1cn(Cc2ccc(F)cc2)c2ccccc12)NCCc1ccccn1` (stereo not shown) [B19, C1=CC=C2C(=C1)C(=CN2CC3=CC=C(C=C3)F)C(CC(=O)NCCC4=CC=CC=N4)C5=CC=C(C=C5)F]: the inhibition at 10 µM came out at 22.9%.

With `COc1ccc(C(CC(=O)NCCc2ccccn2)c2cn(Cc3ccc(F)cc3)c3ccccc23)cc1` (stereo not shown) [B20, COC1=CC=C(C=C1)C(CC(=O)NCCC2=CC=CC=N2)C3=CN(C4=CC=CC=C43)CC5=CC=C(C=C5)F], the inhibition at 10 µM was found to be 37.5%.

`CCN1CCN(C(=O)CC(c2ccc(C(F)(F)F)cc2)c2cn(Cc3ccc(F)cc3)c3ccccc23)CC1` (stereo not shown) [B21, CCN1CCN(CC1)C(=O)CC(C2=CC=C(C=C2)C(F)(F)F)C3=CN(C4=CC=CC=C43)CC5=CC=C(C=C5)F]: the inhibition at 10 µM turned out to be 71.4%.

For the compound `COc1cc(OC)cc(C(CC(=O)NCCc2ccccn2)c2cn(Cc3ccccc3)c3ccccc23)c1` (stereo not shown) [B22, COC1=CC(=CC(=C1)C(CC(=O)NCCC2=CC=CC=N2)C3=CN(C4=CC=CC=C43)CC5=CC=CC=C5)OC], the inhibition at 10 µM was 45%.

(Values after article PMC11775380, “Discovery of Novel Nav1.7-Selective Inhibitors with the 1H-Indole-3-Propionamide Scaffold for Effective Pain Relief” (Research, 2025).)
